Earlier results, collected in patent publication EP0209897A2, “Peptide enzyme inhibitors” (Merck & Co., Inc., priority 1985, dated 1987).

Tested on: hog renin
Conditions: after the injection of hog renin into nephrectomized rats; Gross et al., Science 175:656, 1971

Pepstatin
blood pressure in vivo: reduce blood pressure
